# ChEMBL document CHEMBL4118135, “Optimized allosteric inhibition of engineered protein tyrosine phosphatases with an expanded palette of biarsenical small molecules” (Bioorg Med Chem, 2018)
# Activity calls are given as the source filed them. The rule behind the calls is not given here.
# Molecular target: T1, Tyrosine-protein phosphatase non-receptor type 7 (Homo sapiens) (UniProt P35236)
# T1 sequence (whole entry): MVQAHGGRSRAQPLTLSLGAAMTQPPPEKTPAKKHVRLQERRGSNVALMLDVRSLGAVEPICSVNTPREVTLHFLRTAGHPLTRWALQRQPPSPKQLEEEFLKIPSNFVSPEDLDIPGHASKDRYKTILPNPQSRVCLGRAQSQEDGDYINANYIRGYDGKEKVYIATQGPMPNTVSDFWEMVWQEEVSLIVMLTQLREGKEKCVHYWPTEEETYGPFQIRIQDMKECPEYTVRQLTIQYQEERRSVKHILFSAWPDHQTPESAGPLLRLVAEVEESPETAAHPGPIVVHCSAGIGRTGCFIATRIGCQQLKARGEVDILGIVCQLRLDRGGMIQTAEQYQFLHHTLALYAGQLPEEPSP
# Assay: Inhibition of His6-tagged human wild-type HePTP catalytic domain overexpressed in Escherichia coli BL21(DE3) cells at 100 uM using pNPP as substrate incubated for 90 mins by quenched phosphatase activity assay
smiles,measurement,value
O=C(O)c1ccccc1-c1c2ccc(=O)c([As]3SCCS3)c-2oc2c([As]3SCCS3)c(O)ccc12,inhibition,inactive
